Laboratory results published in US6518304B1, “Fungicidal composition” (Sumitomo Chemical Company, Limited, priority 1993, dated 2003).
Read-outs that look alike come from different tables or passages of the source.

How the values were obtained:
[1] = test system: tomato late blight fungus (Phytophthora infestans); format: in vivo; conditions: tomato plant, 1 week at 24° C.
[2] = test system: grape downy mildew fungus (Plasmopara viticola); assay: Test Example 2: grape downy mildew, spray then inoculation, infection rate; format: in vivo; conditions: grape plant, 1 week at 24° C.
Text: A grape plant (cultivar: Berry A) was planted in each pot and was sprayed with a sufficient volume of a dilution with a predetermined concentration of a wettable powder obtained according to Formulation Example 5, after the plant put out a fourth leaf.

[3] = test system: tomato late blight fungus; format: in vivo, Phytophthora infestans; conditions: tomato seedling
apple scab fungus [4] = assay: Test Example 8: apple scab, foliage application then inoculation; format: in vivo, Venturia inaequalis; conditions: apple seedling
[5] = test system: tomato late blight fungus; format: in vivo, Phytophthora infestans; conditions: tomato seedling; remark: listed apart in the source
apple scab fungus [6] = assay: Test Example 13: apple scab, foliage application then inoculation; format: in vivo, Venturia inaequalis; conditions: apple seedling
[7] = test system: grape powdery mildew fungus (Uncinula necator); assay: Test Example 14: grape powdery mildew, spray then inoculation; format: in vivo; conditions: grape plant, 3 weeks at 24° C.
[8] = test system: tomato late blight fungus (Phytophthora infestans); format: in vivo; conditions: tomato plant, 1 week at 24° C.; remark: listed apart in the source
[9] = test system: grape powdery mildew fungus (Uncinula necator); assay: Test Example 16: grape powdery mildew, spray then inoculation; format: in vivo; conditions: grape plant, 3 weeks at 24° C.
[10] = test system: gray mold fungi sensitive to benzimidazole type fungicidal compounds; assay: Test Example 12: cucumber gray mold, benzimidazole-sensitive fungus; conditions: cucumber seedling
Procedure: Each of plastic pots was filled with sandy loam and sown with cucumber (Sagamihanjiro), followed by growing in a greenhouse for 14 days. A wettable powder of test agents prepared according to Formulation Example 41 was diluted to a predetermined concentration with water, and foliage application of the dilution was carried out so as to adhere the dilution sufficiently to the surfaces of leaves of the grown cucumber young seedling. After air-drying, each of gray mold fungi sensitive and tolerant, respectively, to benzimidazole type fungicidal compounds was inoculated on the surfaces of leaves of the young seedling, and the young seedling was grown in the dark at 10° C. and a high humidity for 4 days, after which the infection rate (%) was investigated.

[11] = test system: gray mold fungi sensitive to benzimidazole type fungicidal compounds; assay: Test Example 17: cucumber gray mold, benzimidazole-sensitive fungus; conditions: cucumber seedling
Procedure: (§1) Each of plastic pots was filled with sandy loam and sown with cucumber (Sagamihanjiro), followed by growing in a greenhouse for 14 days. A wettable powder of test agents prepared according to Formulation Example 59 was diluted to a predetermined concentration with water, and foliage application of the dilution was carried out so as to adhere the dilution sufficiently to the surfaces of leaves of the grown cucumber young seedling. After air-drying, each of gray mold fungi sensitive and tolerant, respectively, to benzimidazole type fungicidal compounds was inoculated on the surfaces of leaves of the young seedling, and the young seedling was grown in the dark at 10° C. and a high humidity for 4 days, after which the infection rate (%) was investigated.

[12] = test system: grape downy mildew fungus; assay: Test Example 6: grape downy mildew, foliage application then inoculation; conditions: grape seedling
Procedure: (§2) Each of plastic pots was filled with sandy loam and sown with grape (Berry A), followed by growing in a greenhouse for 40 days. […] Then, the young seedling was inoculated with a suspension of zoosporangia of grape downy mildew fungus by spraying. After the inoculation, the young seedling was allowed to stand overnight at 23° C. and a high humidity and then grown in a greenhouse for 7 days, after which the infection rate (%) was investigated.

[13] = test system: grape downy mildew fungus; assay: Test Example 7: grape downy mildew, foliage application then inoculation; conditions: grape seedling
Procedure: as §2

[14] = test system: grape downy mildew fungus; assay: Test Example 9: grape downy mildew, foliage application then inoculation; conditions: grape seedling
Procedure: as §2

gray mold fungus [15] = assay: Test Example 4: cucumber gray mold, foliage application after inoculation; conditions: cucumber seedling, applied after inoculation
Procedure: Each of plastic pots was filled with sandy loam and sown with cucumber (Sagamihanjiro), followed by growing in a greenhouse for 14 days. Gray mold fungus was inoculated on the surfaces of leaves of the grown cucumber young seedling, and the young seedling was grown in the dark at 10° C. and a high humidity for 2 days and then at a temperature of 23° C. for 3 days. A wettable powder of test agents prepared according to Formulation Example 11 was diluted to a predetermined concentration with water, and foliage application of the dilution was carried out so as to adhere the dilution sufficiently to the surfaces of leaves of the cucumber young seedling. After the spraying, the young seedling was grown in the dark at 10° C. and a high humidity for 3 days, and then the infection rate (%) was investigated.

gray mold fungus [16] = assay: Test Example 3: cucumber gray mold, foliage application before inoculation; conditions: cucumber seedling, applied before inoculation, 4 days
Procedure: Each of plastic pots was filled with sandy loam and sown with cucumber (Sagamihanjiro), followed by growing in a greenhouse for 14 days. A wettable powder of test agents prepared according to Formulation Example 11 was diluted to a predetermined concentration with water, and foliage application of the dilution was carried out so as to adhere the dilution sufficiently to the surfaces of leaves of the grown cucumber young seedling. After air-drying, gray mold fungus was inoculated on the surfaces of leaves of the young seedling, and the young seedling was grown in the dark at 10° C. and a high humidity for 4 days, after which the infection rate (%) was investigated.

gray mold fungus [17] = assay: Test Example 11: cucumber gray mold, foliage application before inoculation; conditions: cucumber seedling
Procedure: Each of plastic pots was filled with sandy loam and sown with cucumber (Sagamihanjiro), followed by growing in a greenhouse for 14 days. A wettable powder of test agents prepared according to Formulation Example 35 was diluted to a predetermined concentration with water, and foliage application of the dilution was carried out so as to adhere the dilution sufficiently to the surfaces of leaves of the grown cucumber young seedling. After air-drying, gray mold fungus was inoculated on the surfaces of leaves of the young seedling, and the young seedling was grown in the dark at 10° C. and a high humidity for 4 days, after which the infection rate (%) was investigated.

[18] = test system: gray mold fungi tolerant to benzimidazole type fungicidal compounds; assay: Test Example 12: cucumber gray mold, benzimidazole-tolerant (resistant) fungus; conditions: cucumber seedling
Procedure: Each of plastic pots was filled with sandy loam and sown with cucumber (Sagamihanjiro), followed by growing in a greenhouse for 14 days. […] After air-drying, each of gray mold fungi sensitive and tolerant, respectively, to benzimidazole type fungicidal compounds was inoculated on the surfaces of leaves of the young seedling, and the young seedling was grown in the dark at 10° C. and a high humidity for 4 days, after which the infection rate (%) was investigated.

[19] = test system: gray mold fungi tolerant to benzimidazole type fungicidal compounds; assay: Test Example 17: cucumber gray mold, benzimidazole-tolerant (resistant) fungus; conditions: cucumber seedling
Procedure: as §1

CNC(=O)C(=NOC)c1ccccc1COc1ccc(Cl)cc1Cl [Compound (Id), N-methyl-α-methoxyimino-2-[(2,4-dichlorophenoxy)methyl]phenylacetamide]
Infection rate (%) ([1]; 10 ppm): 25% | Infection rate (%) ([2]; 10 ppm): 25% | Infection rate (%) ([3]; 40 ppm): 20% | Infection rate (%) (apple scab fungus [4]; 5 ppm): 25% | Infection rate (%) ([5]; 40 ppm): 20% | Infection rate (%) (apple scab fungus [6]; 5 ppm): 20% | Infection rate (%) ([7]; 1 ppm): 25% | Infection rate (%) ([8]; 10 ppm): 25% | Infection rate (%) ([9]; 10 ppm): 25% | Infection rate (%) Sensitive fungus ([10]; 200 ppm): 20% | Infection rate (%) Sensitive fungus ([11]; 200 ppm): 20% | Infection rate (%) ([12]; 5 ppm): 25% | Infection rate (%) ([13]; 10 ppm): 20% | Infection rate (%) ([14]; 40 ppm): 20% | Infection rate (%) (gray mold fungus [15]; 200 ppm): 20% | Infection rate (%) (gray mold fungus [16]; 200 ppm): 20% | Infection rate (%) (gray mold fungus [17]; 200 ppm): 20% | Infection rate (%) Resistant fungus ([18]; 200 ppm): 20% | Infection rate (%) Resistant fungus ([19]; 200 ppm): 20%

N#Cc1c[nH]cc1-c1cccc2c1OC(F)(F)O2 [Fludioxonil, 4-(2,2-difluoro-1,3-benzodioxol-4-yl)-1H-pyrrole-3-carbonitrile, reference compound]
Infection rate (%) (gray mold fungus [17]; 0.5 ppm): 20%

CON=C(C(=O)OC)c1ccccc1COc1ccccc1C [Compound (Ia), methyl α-methoxyimino-2-[(2-methylphenoxy)methyl]phenylacetate]
Infection rate (%) ([1]; 10 ppm): 25% | Infection rate (%) ([2]; 10 ppm): 30% | Infection rate (%) ([3]; 50 ppm): 25% | Infection rate (%) (apple scab fungus [4]; 0.8 ppm): 20% | Infection rate (%) ([5]; 100 ppm): 25% | Infection rate (%) (apple scab fungus [6]; 1 ppm): 20% | Infection rate (%) ([7]; 1 ppm): 20% | Infection rate (%) ([8]; 10 ppm): 25% | Infection rate (%) ([9]; 10 ppm): 30% | Infection rate (%) Sensitive fungus ([10]; 10 ppm): 30% | Infection rate (%) Sensitive fungus ([11]; 10 ppm): 30% | Infection rate (%) ([12]; 5 ppm): 20% | Infection rate (%) ([13]; 10 ppm): 20% | Infection rate (%) ([14]; 20 ppm): 25% | Infection rate (%) (gray mold fungus [15]; 10 ppm): 30% | Infection rate (%) (gray mold fungus [16]; 10 ppm): 30% | Infection rate (%) (gray mold fungus [17]; 10 ppm): 30% | Infection rate (%) Resistant fungus ([18]; 10 ppm): 30% | Infection rate (%) Resistant fungus ([19]; 10 ppm): 30%

CC#Cc1cc(C)nc(Nc2ccccc2)n1 [Mepanipyrim, 2-anilino-4-methyl-6-(1-propynyl)pyrimidine, reference compound]
Infection rate (%) (gray mold fungus [17]; 5 ppm): 20%

CCO[PH](=O)O [Fosetyl aluminum, ethyl hydrogenphosphonate]
Infection rate (%) ([14]; 100 ppm): 25%

COCC(=O)N(c1c(C)cccc1C)[C@@H](C)C(=O)OC [Metalaxyl, methyl N-(2,6-dimethylphenyl)-N-(methoxyacetyl)-alaninate, reference compound]
Infection rate (%) ([5]; 5 ppm): 20% | Infection rate (%) ([14]; 1 ppm): 20%

CCOc1ccc(NC(=O)OC(C)C)cc1OCC [Diethofencarb, isopropyl 3,4-diethoxyphenylcarbamate, reference compound]
Infection rate (%) Sensitive fungus ([11]; 10 ppm): 100% | Infection rate (%) Resistant fungus ([19]; 10 ppm): 20%

COC(=O)NC(=S)Nc1ccccc1NC(=S)NC(=O)OC [Thiophanate-methyl, 1,2-bis(3-methoxycarbonyl-2-thioureido)benzene, reference compound]
Infection rate (%) (apple scab fungus [6]; 10 ppm): 20% | Infection rate (%) Sensitive fungus ([10]; 10 ppm): 25% | Infection rate (%) Resistant fungus ([18]; 10 ppm): 100%

O=C1c2ccccc2C(=O)N1SC(Cl)(Cl)Cl [Folpet, N-(trichloromethylthio)phthalimide, reference compound]
Infection rate (%) ([13]; 200 ppm): 20%

COCC(=O)N(c1c(C)cccc1C)N1CCOC1=O [Oxadixyl, 2-methoxy-N-(2-oxo-1,3-oxazolidin-3-yl)aceto-2′,6′-xylidide]
Infection rate (%) ([14]; 5 ppm): 20%

Cc1cc(C)nc(Nc2ccccc2)n1 [Pyrimetanil, 2-anilino-4,6-dimethylpyrimidine, reference compound]
Infection rate (%) (gray mold fungus [17]; 10 ppm): 20%

[Cl-].[Cu+2].[Cu+2].[OH-].[OH-].[OH-] [Copper oxychloride, reference compound]
Infection rate (%) ([8]; 500 ppm): 25% | Infection rate (%) ([9]; 500 ppm): 30%

COC(=O)[C@H](C)N(C(=O)Cc1ccccc1)c1c(C)cccc1C [Benalaxyl, methyl N-(2,6-dimethylphenyl)-N-(phenylacetyl)alaninate]
Infection rate (%) ([14]; 1 ppm): 25%

S1SSSSSSS1 [Sulfur, sulfur, reference compound]
Infection rate (%) ([7]; 500 ppm): 20%

CCNC(=O)NC(=O)C(C#N)=NOC [Cymoxanil, 2-cyano-N-[ethylaminocarbonyl]-2-(methoxyimino)acetamide]
Infection rate (%) ([14]; 40 ppm): 20%

CC12CC1(C)C(=O)N(c1cc(Cl)cc(Cl)c1)C2=O (centres unmarked) [Procymidone, N-(3,5-dichlorophenyl)-1,2-dimethylcyclopropane-1,2-dicarboxyimide, reference compound]
Infection rate (%) (gray mold fungus [15]; 10 ppm): 25% | Infection rate (%) (gray mold fungus [16]; 10 ppm): 25%

O=C1C2CC=CCC2C(=O)N1SC(Cl)(Cl)Cl (centres unmarked) [Captan, 1,2,3,6-tetrahydro-N-(trichloromethylthio)phthalimide, reference compound]
Infection rate (%) (apple scab fungus [4]; 300 ppm): 20%

[Cu+2].[O-]c1cccc2cccnc12.[O-]c1cccc2cccnc12 [Copper oxyquinolinolate, copper oxyquinolinolate (8-hydroxyquinolinate), reference compound]
Infection rate (%) ([8]; 50 ppm): 25% | Infection rate (%) ([9]; 200 ppm): 25%

Mancozeb [reference compound]
Infection rate (%) ([1]; 50 ppm): 25% | Infection rate (%) ([2]; 50 ppm): 25%

O=[N+]([O-])c1cc(C(F)(F)F)c(Cl)c([N+](=O)[O-])c1Nc1ncc(C(F)(F)F)cc1Cl [Fluazinam, 3-chloro-N-(3-chloro-5-trifluoromethyl-2-pyridyl)-α,α,α-trifluoro-2,6-dinitro-p-toluidine, reference compound]
Infection rate (%) (gray mold fungus [17]; 1 ppm): 25%

CCCCNC(=O)n1c(NC(=O)OC)nc2ccccc21 [Benomyl, methyl 1-(butylcarbamoyl)-2-benzimidazole-carbamate, reference compound]
Infection rate (%) (apple scab fungus [6]; 20 ppm): 25% | Infection rate (%) Sensitive fungus ([10]; 10 ppm): 20% | Infection rate (%) Resistant fungus ([18]; 10 ppm): 100%

c1ccc2[nH]c(-c3cscn3)nc2c1 [Thiabendazole, 2-(4′-thiazolyl)benzimidazole, reference compound]
Infection rate (%) Sensitive fungus ([10]; 30 ppm): 25% | Infection rate (%) Resistant fungus ([18]; 30 ppm): 100%

N#Cc1c(Cl)c(Cl)c(Cl)c(C#N)c1Cl [Chlorothalonil, tetrachloroisophthalonitrile, reference compound]
Infection rate (%) ([3]; 40 ppm): 20% | Infection rate (%) ([12]; 30 ppm): 20%
